Reference: patent publication US20100081661A1, “HEME OXYGENASE INHIBITORS, SCREENING METHODS FOR HEME OXYGENASE INHIBITORS AND METHODS OF USE OF HEME OXYGENASE INHIBITORS FOR ANTIMICROBIAL THERAPY” (UNIVERSITY OF MARYLAND, BALTIMORE, priority 2006, published 2010)
Where two headings read alike, the source gives them in different places.

Key:
nm-HO [1] = target: T1, nm-HO (Neisseria meningitidis, UniProt Q9AH50); experiment: biochemical; type: binding
nm-HO [2] = target: T1, nm-HO; type: cell-based; parameters: key to E. coli assay biliverdin pigmentation: + biliverdin observed in cell pellet; − biliverdin not observed
P. aeruginosa = experiment: MIC50 for P. aeruginosa; type: cell-based, Pseudomonas aeruginosa; conditions: for minimum inhibition conc / MIC: Table 2; for MIC: read-out: minimum inhibition conc
pa-HO [3] = target: T2, pa-HO (Pseudomonas aeruginosa, UniProt O69002); experiment: biochemical; type: binding; conditions: for Kd: read-out: Fluorescence pa-HO Kd
T2 sequence (O69002 1-198): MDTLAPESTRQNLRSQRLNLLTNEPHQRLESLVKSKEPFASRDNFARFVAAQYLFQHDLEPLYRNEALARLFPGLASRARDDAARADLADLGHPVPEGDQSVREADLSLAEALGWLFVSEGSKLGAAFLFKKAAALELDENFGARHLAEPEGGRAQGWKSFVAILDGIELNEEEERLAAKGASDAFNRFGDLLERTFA

pa-HO [4] = target: T2, pa-HO; type: binding; conditions: for NMR sat. transfer: Table 2, paHO; for NMR pa-HO: Table 3A
C. elegans = C. elegans assay (infected worms); type: in vivo; conditions: for C. elegans: Table 3A, infected worms
P. aeruginosa MPA01 = type: cell-based; conditions: 500 μM and above
[5] = Table 4, target not named, values match nm-HO of Table 3A
[6] = Table 2, colour of cell pellet (white = no biliverdin, green = biliverdin) or toxicity to cells
[7] = Table 3B, nm-HO in E. coli expression system
[8] = Pseudomonas aeruginosa, Table 3B, P. aeruginosa, read-out: MIC 50
[9] = Pseudomonas aeruginosa, Table 3A, read-out: MIC 50
Throughout, for NMR pa-HO: key: Shows binding by NMR method = +; Ambig = ambiguous.

T1 sequence (Q9AH50 1-209): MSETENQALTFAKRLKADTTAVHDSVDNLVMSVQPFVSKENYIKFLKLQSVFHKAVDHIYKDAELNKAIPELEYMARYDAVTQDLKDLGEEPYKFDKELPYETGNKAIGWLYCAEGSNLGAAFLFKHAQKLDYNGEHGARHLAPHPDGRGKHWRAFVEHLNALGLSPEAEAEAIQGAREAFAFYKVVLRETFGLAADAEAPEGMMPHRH

## O=C(Cc1ccc(Cl)cc1)N/N=C/c1c[nH]c2ccccc12 [Compound 126]
nm-HO [1]
  Kd: 14.1 µM
nm-HO [1]; [5]
  Kd: 14.1 µM
nm-HO [2]; [6]
  E. coli assay: white pellet
nm-HO [2]; Table 3A, pellet colour
  Biliverdin detection from E. coli Assay: White pellet
nm-HO [2]; [7]
  Biliverdin detection from E. coli Assay: White pellet
nm-HO [2]; Table 4
  E. coli assay: White pellet
P. aeruginosa; [8]
  MIC50: > 1000 mg/L
P. aeruginosa
  minimum inhibition conc: no antibacterial activity
P. aeruginosa; Table 3A
  MIC 50 (ug/ml): no antibact activity
pa-HO [3]
  fluorescence binding: yes
pa-HO [3]; Table 3A
  Kd: 15.8 µM

## Cl.N=C(N/N=C\c1cccnc1)N/N=C\c1cccnc1 [Compound 148]
nm-HO [1]
  Kd: 12.2 µM
nm-HO [1]; [5]
  Kd: 12.2 µM
nm-HO [2]; [6]
  E. coli assay: white pellet
nm-HO [2]; Table 3A, pellet colour
  Biliverdin detection from E. coli Assay: White pellet
nm-HO [2]; [7]
  Biliverdin detection from E. coli Assay: White pellet
nm-HO [2]; Table 4
  E. coli assay: White pellet
P. aeruginosa; [8]
  MIC50: > 1000 mg/L
P. aeruginosa
  minimum inhibition conc: no antibacterial activity
P. aeruginosa; Table 3A
  MIC 50 (ug/ml): no antibact activity
pa-HO [3]
  fluorescence binding: Alias: CB-31 Compound 1 in manuscript fluorescence binding: yes minimum inhibition conc: no antibacterial activity NMR sat. transfer: E. coli assay: white pellet
  Kd: 15.9 µM

## COc1ccc(C(=O)CCC(=O)O)c(C)c1 [Compound 59]
pa-HO [4]
  NMR sat. transfer: yes, bind paHO
  NMR pa-HO: +
P. aeruginosa; Pseudomonas aeruginosa
  MIC: > 1000 mg/L
P. aeruginosa; [9]
  MIC50: > 1000 mg/L
P. aeruginosa; Table 3B, P. aeruginosa
  MIC50: >1000 mg/L
pa-HO [3]
  fluorescence binding: yes

## O=C1C=C(Nc2ccccc2O)c2ccccc2C1=O [Compound 114]
nm-HO [1]
  Kd: 28.8 µM
nm-HO [2]; [6]
  E. coli assay: toxic to cells
nm-HO [2]; Table 3A, pellet colour
  Biliverdin detection from E. coli Assay: Toxic
nm-HO [2]; [7]
  Biliverdin detection from E. coli Assay: Toxic
nm-HO [2]; Table 6
  E. coli assay: Toxic
pa-HO [3]
  fluorescence binding: yes

## CCN(CC)c1ccc(/C=N/n2nnnc2N)c(O)c1 [Compound 149]
pa-HO [4]
  NMR sat. transfer: do not bind paHO
pa-HO [3]
  fluorescence binding: yes

## NCc1ccc2c3c(cccc13)C(=O)N2 [Compound 87]
C. elegans
  C. elegans: Inconclusive
pa-HO [4]
  NMR sat. transfer: yes, bind paHO
  NMR pa-HO: +
P. aeruginosa; Pseudomonas aeruginosa
  MIC: > 125 mg/L
P. aeruginosa; [9]
  MIC50: > 125 mg/L
P. aeruginosa; Table 3B, P. aeruginosa
  MIC50: >125 mg/L

## O=C(c1ccco1)C12CN3CN(CN(C3)C1)C2 [Compound 133]
nm-HO [2]; [6]
  E. coli assay: Alias: CB-9 fluorescence binding: nd minimum inhibition conc: nd NMR sat. transfer: nd E. coli assay: green pellet
nm-HO [2]; Table 3A, pellet colour
  Biliverdin detection from E. coli Assay: Green Pellet
nm-HO [2]; [7]
  Biliverdin detection from E. coli Assay: Green Pellet
nm-HO [2]; Table 4
  E. coli assay: Green Pellet
P. aeruginosa; [9]
  MIC50: > 380 mg/L
P. aeruginosa; Table 3B, P. aeruginosa
  MIC50: >380 mg/L

## O=C(O)/C=C\C(=O)Nc1ccc(Nc2ccccc2)cc1 [Compound 75]
nm-HO [1]
  Kd: 15.6 µM
C. elegans
  C. elegans: no effect
nm-HO [2]; [6]
  E. coli assay: white pellet
nm-HO [2]; Table 3A, pellet colour
  Biliverdin detection from E. coli Assay: White pellet
nm-HO [2]; [7]
  Biliverdin detection from E. coli Assay: White pellet
nm-HO [2]; Table 4
  E. coli assay: White pellet
P. aeruginosa; Pseudomonas aeruginosa
  MIC: > 1000 mg/L
P. aeruginosa; [9]
  MIC50: > 1000 mg/L
P. aeruginosa; Table 3B, P. aeruginosa
  MIC50: >1000 mg/L
pa-HO [3]
  fluorescence binding: yes
pa-HO [3]; Table 3A
  Kd: 20.1 µM

## O=C(Cc1ccc([N+](=O)O)cc1)N/N=C/c1ccc(O)cc1 [Compound 44]
nm-HO [1]
  Kd: 12.3 µM
pa-HO [4]
  NMR sat. transfer: Alias: CB-22 fluorescence binding: nd minimum inhibition conc: nd NMR sat. transfer: tested, ambiguous
  NMR pa-HO: Ambig

## NC(=O)c1ccc(NC(=O)/C=C\C(=O)O)cc1Cl [Compound 8]
nm-HO [2]; [6]
  E. coli assay: green pellet
nm-HO [2]; Table 3A, pellet colour
  Biliverdin detection from E. coli Assay: Green Pellet
nm-HO [2]; [7]
  Biliverdin detection from E. coli Assay: Green Pellet
nm-HO [2]; Table 4
  E. coli assay: Green Pellet
P. aeruginosa; Pseudomonas aeruginosa
  MIC: > 750 mg/L
P. aeruginosa; [9]
  MIC50: > 750 mg/L
P. aeruginosa; Table 3B, P. aeruginosa
  MIC50: >750 mg/L

## O=C(O)CN1C(=O)c2ccccc2C1=O [Compound 150]
pa-HO [4]
  NMR sat. transfer: yes, bind paHO
  NMR pa-HO: +
P. aeruginosa; [8]
  MIC50: > 1000 mg/L
P. aeruginosa
  minimum inhibition conc: no antibacterial activity
P. aeruginosa; Table 3A
  MIC 50 (ug/ml): no antibact activity
pa-HO [3]
  fluorescence binding: yes

## O=C(O)/C=C\C(=O)Nc1ccc(Nc2ccccc2)cc1 [chembridge010392]
P. aeruginosa MPA01
  inhibitory effect in the presence of Fe(III)-pyoverdine: slight inhibitory effect

## CN(C)c1ccc(/C=N/NC(=N)N)cc1 [Compound 1]
nm-HO [1]; Table 3A, read-out: Fluorescence nm-HO Kd
  Kd: 22.9 µM
nm-HO [1]; Table 4, target not named, values match nm-HO of Table 3A, read-out: Kd
  Kd: 22.9 µM
C. elegans; Table 2
  C. elegans assay: yes
nm-HO [2]; E. coli cells expressing nm-HO, cell pellet
  E. coli assay biliverdin pigmentation: −
nm-HO [2]; [6]
  E. coli assay: white pellet
nm-HO [2]; Table 3A, pellet colour
  Biliverdin detection from E. coli Assay: White pellet
nm-HO [2]; [7]
  Biliverdin detection from E. coli Assay: White pellet
nm-HO [2]; Table 4
  E. coli assay: White pellet
pa-HO [4]
  NMR sat. transfer: yes, bind paHO
  NMR pa-HO: +
P. aeruginosa; Pseudomonas aeruginosa
  MIC: > 160 mg/L
P. aeruginosa; [9]
  MIC50: > 160 mg/L
P. aeruginosa; Table 3B, P. aeruginosa
  MIC50: >160 mg/L
pa-HO [3]
  fluorescence binding: yes
pa-HO [3]; Table 3A
  Kd: 30.1 µM

## CC(=O)Nc1ccc(/N=C/c2ccco2)cc1 [Compound 119]
pa-HO [4]
  NMR sat. transfer: do not bind paHO
pa-HO [3]
  fluorescence binding: yes

## O=C(NNC(=O)c1ccncc1)c1ccncc1 [Compound 24]
nm-HO [2]; [6]
  E. coli assay: Alias: CD-18 (Compound 7 in manuscript) fluorescence binding: yes minimum inhibition conc: nd NMR sat. transfer: nd E. coli assay: green pellet
nm-HO [2]; Table 3A, pellet colour
  Biliverdin detection from E. coli Assay: Green Pellet
nm-HO [2]; [7]
  Biliverdin detection from E. coli Assay: Green Pellet
nm-HO [2]; Table 5
  E. coli assay: Green Pellet
pa-HO [3]
  fluorescence binding: Alias: CD-18 (Compound 7 in manuscript) fluorescence binding: yes minimum inhibition conc: nd NMR sat. transfer: nd E. coli assay: green pellet
